Columns and labels:
[1] = Inhibition of beta secretase (unknown origin); parameters: species or system Homo sapiens
[2] = Inhibition of human tau (441 residues) P301L mutant expressed in Escherichia coli BL21(DE3) assessed as reduction in aggregation
Homo sapiens = organism: Homo sapiens; test: Inhibition of human tau (441 residues) P301L mutant expressed in Escherichia coli BL21(DE3) assessed as reduction in aggregation at 10 uM relative to control
[3] = target: Microtubule-associated protein tau (Homo sapiens) (UniProt P10636); test: Inhibition of human tau (441 residues) expressed in Escherichia coli BL21(DE3) assessed as reduction in aggregation at 10 uM relative to control
Chain of Microtubule-associated protein tau (Homo sapiens) (P10636 whole entry): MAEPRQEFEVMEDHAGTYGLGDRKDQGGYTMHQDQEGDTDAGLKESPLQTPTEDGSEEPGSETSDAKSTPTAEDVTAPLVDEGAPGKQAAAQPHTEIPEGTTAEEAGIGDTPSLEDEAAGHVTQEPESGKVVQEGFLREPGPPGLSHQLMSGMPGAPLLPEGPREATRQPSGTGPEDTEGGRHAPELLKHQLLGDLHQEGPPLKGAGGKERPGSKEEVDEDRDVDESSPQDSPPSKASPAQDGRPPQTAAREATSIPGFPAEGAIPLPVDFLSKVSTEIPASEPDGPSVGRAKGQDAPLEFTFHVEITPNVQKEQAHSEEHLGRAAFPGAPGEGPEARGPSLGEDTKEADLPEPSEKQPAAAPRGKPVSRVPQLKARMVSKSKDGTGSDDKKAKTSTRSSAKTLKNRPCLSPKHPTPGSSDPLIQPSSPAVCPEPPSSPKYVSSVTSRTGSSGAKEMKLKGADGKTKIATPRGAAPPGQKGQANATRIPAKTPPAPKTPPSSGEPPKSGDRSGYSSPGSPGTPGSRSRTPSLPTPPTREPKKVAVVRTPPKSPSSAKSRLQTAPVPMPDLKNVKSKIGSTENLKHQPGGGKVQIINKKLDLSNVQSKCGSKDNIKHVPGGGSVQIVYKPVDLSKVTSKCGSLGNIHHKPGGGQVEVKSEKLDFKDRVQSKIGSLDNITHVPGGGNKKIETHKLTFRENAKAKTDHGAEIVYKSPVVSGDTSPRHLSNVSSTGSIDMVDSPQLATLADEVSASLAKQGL

Row | Ki [1] [µM] | IC50 [2] [µM] | inhibition (Homo sapiens) [%] | inhibition [3] [%] | SMILES
1 | 55 |  |  |  | COC(=O)C1=CO[C@@H](O[C@@H]2O[C@H](CO)[C@@H](O)[C@H](O)[C@H]2O)[C@@H]2[C@@H](C)[C@@H](O)C[C@H]12 [LOGANIN]
2 |  | 1.3 | 84 | 79 | C/C=C1/[C@H](O)OC=C(C(=O)OC)[C@H]1CC(=O)OCCc1ccc(O)c(O)c1
